Measurements: US10487045B2, “Adamantane derivative and use thereof” (TOHOKU UNIVERSITY, priority 2016, dated 2019)

How the values were obtained:
Format in all cases: in vivo
APP23 mice [1] = experiment: New object recognition test in Alzheimer's disease model mice; conditions: APP23 mice 12 month-old, administered for two months
Method: The new object recognition test method is carried out as follows. Two identical shape building blocks are placed in a mouse cage and mice are allowed to play for 10 minutes (this is referred to as a training trial). One hour later, one of the building blocks was replaced with a different-shaped building block. Since normal mice show interest on a new object, they play a longer time with the different-shaped building block. The Alzheimer's disease (model) mice, since the mice fail to recognize the new object (building block), are seemed to have memory disturbance. Mice are allowed to freely play for further 5 minutes with two building blocks different in shape (this is referred to as retention trial). In the training trial and retention trial, the number of times a mouse is in contact with each of the two objects was counted. The ratio (%) of the number of contact times to the different-shaped building block to the total number of contact times in the retention trial was calculated and used as a discrimination index.

APP23 mice [2] = experiment: Long-term potentiation (LTP) in hippocampal slices, electrophysiological technique; conditions: hippocampal slices of APP23 mice chronically treated
Method: FIG. 4e to FIG. 4g show the results of long-term potentiation phenomenon (LTP)(serving as an index of memory formation) analyzed by an electrophysiological technique. The hippocampus in the brain plays an important role in memorization. The hippocampus was cut into slice sections (400 micrometers in thickness). The slice sections were placed in an artificial cerebrospinal fluid (126 mM NaCl, 5 mM KCL, 26 mM NaHCO3, 1.3 mM MgSO4-7H2O, 1.26 mM KH2PO4, 2.4 mM CaCl2-2H2O, 10 mM glucose) saturated with a 95% O2/5% CO2 gas at 34° C. for two hours and recovered. The hippocampal slice sections were transferred to a measuring chamber and the artificial cerebrospinal fluid containing TP-014 was perfused. The activity of the nerve cells when electrical stimulation was applied was recorded and the postsynaptic assembly potential (fEPSP) was measured. Based on them, the degree of LTP improvement was evaluated. Thereafter, an electrical stimulation (100 Hz) was applied to the hippocampus to cause a […] (it is considered that memory is formed by a […] in the hippocampus). It was confirmed that an increase rate of the neuronal excitation decreases in APP23 mice; whereas the increase rate is improved in the mice chronically treated with TP-014.

APP23 mice [3] = experiment: Immunoblotting of hippocampus for phosphorylation of CaMKII, CaMKIV and ERK; conditions: APP23 mice chronically treated, conditions as Test Example 4
Method: The hippocampus of APP23 mouse was excised out. To hippocampal slices, an SDS sample buffer was added to prepare a suspension, which was subjected to immunoblotting using antibodies against CaMKII, CaMKIV and ERK (CaMKII: Fukunaga et al., J. Biol. Chem. 1992, 267, 22527-22533, CaMKIV: Kasahara et al., J. Biol. Chem. 2001, 276, 24044-24050, ERK: manufactured by Sigma-Aldrich). In this manner, phosphorylation of the individual proteins was analyzed. CaMKII, CaMKIV and ERK are molecules all considered to play an important role in memory formation. As a result, it was observed that phosphorylation of CaMKII decreases in ordinary APP23 mice; whereas, in APP23 mice chronically treated with TP-014 (the treatment conditions are the same as in the case of Test Example 4), phosphorylation of CaMKII is accelerated.
GluA1 (Ser-831), Synapsin I (Ser-603) and CREB (Ser-133), which are molecules known to be activated if CaMKII is activated. These molecules were analyzed by immunoblotting of hippocampal slice sections suspended in an SDS sample buffer. Antibodies against the individual molecules were obtained from Millipore. It is shown that activation of GluA1 (Ser-831) and CREB (Ser-133) is induced by activation of CaMKII. FIG. 5a and FIG. 5c show bands (image) actually obtained by electrophoresis of immunoblots.

[4] = tested on: olfactory bulbectomized mice (OBX mice); experiment: Cognitive function tests (Y-maze, new object recognition, fear conditioning, LTP) in olfactory bulbectomized mice; conditions: chronic administration (2 weeks)
[5] = tested on: Kir6.1 defective mice administered with corticosterone; experiment: Anxiety-related behavioral tests in Kir6.1 defective mice administered with corticosterone; conditions: Kir6.1 defective mice + corticosterone; TP-014 1 mg/kg oral once a day for 2 weeks
Method: Using WT mice (C57BL/6J, Japan SLC, two months old) administered with corticosterone (dose of 5 mg/kg was administered once a day for 2 weeks); and Kir6.1 defective mice administered with corticosterone, as disease model mice showing anxiety-like symptoms, five behavioral tests regarding anxiety-related behavior were conducted. Note that, the Kir6.1 defective mice were obtained from Professor Susumu Seino, School of Medicine of Kobe University (Miki T et al., Nature Medicine 2002, 8, 466-472).
To the WT mice and Kir6.1 defective mice administered with corticosterone, TP-014 (1 mg/kg) was administered via the oral route once a day for 2 weeks (chronic treatment). As a result, it was confirmed that a significant anxiety symptom acceleration improving effect was obtained. […]
The time until a mouse placed in a black box (dark place) feels anxiety to light and comes out of the box to a bright place) was measured. […]
In the cage for housing a mouse is filled with wood chip bedding and 20 marbles are placed such that a mouse can see them. […] The number of marbles buried and hidden in the wood chip bedding is counted. […]
Using the same test apparatus as in the light/dark test method, a mouse is placed in a dark place, and then, sound (treble) is produced for 30 seconds and thereafter electrical stimulation is given for 3 seconds. […] The immobility time of the mouse is measured. […]

O=C(N[C@@H](c1ccccc1)[C@H]1[C@H]2C[C@@H]3C[C@](Cl)(C2)C[C@@]1(OC(=O)C(F)(F)F)C3)C(F)(F)F [TP-014, (1S,2R,3S,5S,7S)-5-chloro-2-((R)-phenyl(2,2,2-trifluoroacetamido)methyl)adamantan-1-yl 2,2,2-trifluoroacetate]
cognitive function, new object recognition test (discrimination index) (APP23 mice [1]): effectively improved
LTP, increase rate of neuronal excitation (fEPSP) after 100 Hz stimulation (APP23 mice [2]): improved
phosphorylation of CaMKII in hippocampus (APP23 mice [3]): accelerated
cognitive dysfunction of OBX mice [4]: significantly improved
anxiety-like symptoms [5]: no improvement effect
